From US6846921B2, “Chimeric antisense oligonucleotides and cell transfecting formulations thereof” (Chiron Corporation, priority 1999, dated 2005)
{5'-OMe-dT} = O-methyl thymidine blocking nucleotide (W), phosphodiester-linked; {3'-3'N} = to-3' linked nucleotide blocking group (Z), phosphodiester-linked; d = 2'-deoxy (DNA); m = 2'-O-methyl

Assays:
[1] = tested on: AKT1 mRNA; test: AKT1 mRNA knockout after transfection of chimeric antisense oligonucleotide; format: cell-based, human; conditions: HT1080 cells
Experimental: (§1) With the exception of the mTyr oligo (SEQ ID NO: 17-18), which was transfected into B16 melanoma cells, all oligos shown in Table 1 were transfected into HT1080 cells, using “Lipitoid 1” (see below) for transfection, and incubated for 24 hours. The table gives the approximate level of mRNA knockout observed in each case.
The same oligos were also delivered by commercial lipids (Effectene™) and peptoids ((NaeNmpeNmpe)3).
(§2) For each transfection mixture, a carrier molecule, preferably a lipitoid or cholesteroid, was prepared to a working concentration of 0.5 mM in water, sonicated to yield a uniform solution, and filtered through a 0.45 μm PVDF membrane. […]
(§3) The level of target mRNA was quantitated using the Roche LightCycler™ real-time PCR machine. […]
(§4) An amplification mixture was prepared by mixing in the following order: 1×PCR buffer II, 3 mM MgCl2, 140 μM each dNTP, 0.175 pmol each oligo, 1:50,000 dil of SYBR® Green, 0.25 mg/ml BSA, 1 unit Taq polymerase, and H2O to 20 μl. (PCR buffer II is available in 10×concentration from Perkin-Elmer (Norwalk, Conn.). In 1×concentration it contains 10 mM Tris pH 8.3 and 50 mM KCl. SYBR® Green (Molecular Probes, Eugene, Oreg.) is a dye which fluoresces when bound to double stranded DNA. As double stranded PCR product is produced during amplification, the fluorescence from SYBR® Green increases.) […]

[2] = tested on: CHK1 mRNA; test: CHK1 mRNA knockout after transfection of chimeric antisense oligonucleotide; format: cell-based, human
Experimental: Antisense chimeric oligonucleotides based on the formula above, having sequences directed against AKT1 (SEQ ID NO: 1) or AKT2 (SEQ ID NO: 2), were prepared as described in Example 1. The oligonucleotides also included a 5′-terminal 5′-O-methyl thymidine, as indicated by the formula above. In these oligonucleotides, X^1 and X^2 were seven-base blocks of 2′-O-methyl PO RNA, Y is PS DNA, Z was a 3′-to-3′ linked nucleotide, and W was a 5′-O-methyl thymidine. Both Z and W were linked to the respective X blocks via phosphodiester linkages. […] FIGS. 5 and 6 show levels of endogenous AKT1 mRNA in colon cancer cells and HT1080 cells, respectively, transfected with anti-AKT1 chimeric oligonucleotides (SEQ ID NO: 1). […]
as §3, §4

[3] = tested on: CK1E mRNA; test: CK1E mRNA knockout after transfection of chimeric antisense oligonucleotide; format: cell-based, human; conditions: HT1080 cells, Lipitoid 1 for transfection, incubated 24 hours, approximate level
Experimental: as §1
as §2, with “membrane. The antisense oligonucleotide was prepared to a working concentration of 100 μM in sterile Millipore water.” for “membrane.”
as §3, §4

[4] = tested on: E1AF mRNA; test: E1AF mRNA knockout after transfection of chimeric antisense oligonucleotide; format: cell-based, human; conditions: HT1080 cells, Lipitoid 1 for transfection, incubated 24 hours, approximate level
Experimental: as §1
as §2, with “membrane. The antisense oligonucleotide was prepared to a working concentration of 100 μM in sterile Millipore water.” for “membrane.”
as §3, §4

[5] = tested on: IGFR1 mRNA; test: IGFR1 mRNA knockout after transfection of chimeric antisense oligonucleotide; format: cell-based, human; conditions: HT1080 cells, Lipitoid 1 for transfection, incubated 24 hours, approximate level
Experimental: as §1
as §2, with “membrane. The antisense oligonucleotide was prepared to a working concentration of 100 μM in sterile Millipore water.” for “membrane.”
as §3, §4

[6] = tested on: ILK mRNA; test: ILK mRNA knockout after transfection of chimeric antisense oligonucleotide; format: cell-based, human; conditions: HT1080 cells, Lipitoid 1 for transfection, incubated 24 hours, approximate level
Experimental: as §1
as §2, with “membrane. The antisense oligonucleotide was prepared to a working concentration of 100 μM in sterile Millipore water.” for “membrane.”
as §3, §4

[7] = tested on: G2 cell cycle checkpoint control; test: chk1 function (G2 cell cycle checkpoint control) after antisense transfection; format: cell-based, human; conditions: hCHK1 antisense, transfected cells
[8] = tested on: chk1 kinase; test: chk1 kinase activity after antisense transfection; format: cell-based, human; conditions: hCHK1 antisense, transfected cells
[9] = tested on: Lovo colon cancer cells; test: 4 day cell proliferation assay after transfection, Lovo; format: cell-based; conditions: 4 day assay, 50-300 nM reverse control PDK1 oligo, compared with Lipitoids 1 and 2
Experimental: (§5) (Again, reverse control PDK1 chimeric oligonucleotides, expected to be non-active, were used.). […] This effect is not limited to this cell type, and was also observed in proliferation assays of Km12L4 colon cancer cells (FIG. 6) and Colo320DM colon cancer cells (FIG. 7).
(§6) Cells were seeded into 96 well plates at a density of 5000 cells per well. For a 4 day proliferation assay, 5 independent 96 well plates were prepared, one for each day. After overnight incubation, cells were transfected using the procedure described above. On each day of the proliferation assay, all medium was removed from one plate and frozen at −70° C. On day four, all plates were developed with the Quantos™ assay kit (Stratagene, La Jolla, Calif.) which determines the amount of DNA, and thus the number of cells, in each well.

[10] = tested on: Colo320DM colon cancer cells; test: Cell proliferation assay after transfection, Colo320DM; format: cell-based; conditions: compared with Lipitoids 1 and 2
Experimental: as §5, §6

[11] = tested on: AKT1 mRNA; test: AKT1 mRNA knockout in colon cancer cell line (Lovo) with different carriers; format: cell-based; conditions: Lovo cells; delivery of chimeric anti-AKT1 oligo
Experimental: For each transfection mixture, a carrier molecule, preferably a lipitoid or cholesteroid, was prepared to a working concentration of 0.5 mM in water, sonicated to yield a uniform solution, and filtered through a 0.45 μm PVDF membrane. The antisense oligonucleotide was prepared to a working concentration of 100 μM in sterile Millipore water.
The oligonucleotide was diluted in OptiMEM™ (Gibco/BRL), in a microfuge tube, to 2 μM, or approximately 20 μg oligo/ml of OptiMEM™. In a separate microfuge tube, lipitoid or cholesteroid, typically in the amount of about 1.5-2 nmol lipitoid/μg antisense oligonucleotide, was diluted into the same volume of OptiMEMTm used to dilute the oligonucleotide. The diluted antisense oligonucleotide was immediately added to the diluted lipitoid and mixed by pipetting up and down.
Cells were plated on tissue culture dishes one day in advance of transfection, in growth media with serum, to yield a density at transfection of 60-90%. The oligonucleotide/lipitoid mixture was added to the cells, immediately after mixing, to a final concentration of 100-300 nM antisense oligonucleotide. Cells were incubated with the transfection mixture at 37° C., 5% CO2 for 4-24 hours. After incubation, the transfection mixture was removed and replaced with normal growth media with serum.
as §3

[12] = tested on: human fibrosarcoma (HT1080) cells; test: Delivery of FITC-labeled chimeric oligonucleotides, fluorescence analysis; format: cell-based
Source text: One method of delivery involves the use of transfection agents known as “lipitoids” and “cholesteroids”, described, for example, in co-owned PCT publications WO 98/06437 and WO 99/08711 (Zuckermann et al.), based on U.S. Ser. Nos. 60/023,867, 60/054,743, and 09/132,808, which are hereby incorporated by reference. These lipid-cationic peptoid conjugates are shown in these references to be effective reagents for the delivery of plasmid DNA to cells in vitro. It is shown herein that such compounds efficiently deliver oligonucleotides into a variety of primary and tumor cell lines. The efficiency of delivery was assessed by fluorescence analysis of FITC-labeled oligonucleotides, or by monitoring mRNA levels after transfection of chimeric antisense oligonucleotides, as described further below.
The extent of delivery of FITC-labeled chimeric oligonucleotides into human fibrosarcoma (HT1080) cells was assessed via fluorescence analysis. (All oligonucleotides used in the subsequent studies were chimeric oligonucleotides as described for the studies represented in Table 1.) The sequence of the oligonucleotides was the reverse control of PDK1 (SEQ ID NO: 25, the reverse of SEQ ID NO: 23) so that the effect of the oligonucleotides on the cells would be minimal. The oligonucleotides were transfected via complexation with (a) a commercially available transfection agent, Effectene™, (b) the peptoid (NaeNmpeNmpe)3 (peptoid 1), (c) Lipitoid 1, in a 1:4 charge ratio of oligo to lipitoid, and (d) Lipitoid 1, in a 1:3 charge ratio.

[13] = oligo SEQ ID NO: 25, in comparison to Effectene

1 (CCATAGTGAGGTTGCATCTGGTGCC; antisense; sugars from the 5' end m7 d11 m7, 5' {5'-OMe-dT}, 3' {3'-3'N}, backbone and T or U not given here; 2'-OMe blocks are phosphodiester, DNA gap is phosphorothioate) [compound 1]
mRNA knockout ([1]; AKT1, Lipitoid 1 for transfection, incubated 24 hours, approximate level): >90%

3 (CCCAGAGCCGATGGTCCGATCATGT; antisense; sugars from the 5' end m7 d11 m7, 5' {5'-OMe-dT}, 3' {3'-3'N}, backbone and T or U not given here; 2'-OMe blocks are phosphodiester, DNA gap is phosphorothioate) [compound 3]
mRNA knockout ([2]; CHK1, HT1080 cells, Lipitoid 1 for transfection, incubated 24 hours, approximate level): >90%

6 (AGCGGCAGAAGTTGAGGTATGTTGA; antisense; sugars from the 5' end m7 d11 m7, 5' {5'-OMe-dT}, 3' {3'-3'N}, backbone and T or U not given here; 2'-OMe blocks are phosphodiester, DNA gap is phosphorothioate) [compound 6]
mRNA knockout [3]: >80%

7 (CCTGCCAGTATGAAGTTGGGAAGCG; antisense; sugars from the 5' end m7 d11 m7, 5' {5'-OMe-dT}, 3' {3'-3'N}, backbone and T or U not given here; 2'-OMe blocks are phosphodiester, DNA gap is phosphorothioate) [compound 7]
mRNA knockout [4]: >90%

9 (TCTTCCTCACAGACCTTCGGGCAAG; antisense; sugars from the 5' end m7 d11 m7, 5' {5'-OMe-dT}, 3' {3'-3'N}, backbone and T or U not given here; 2'-OMe blocks are phosphodiester, DNA gap is phosphorothioate) [compound 9]
mRNA knockout [5]: > 80%

11 (GTGTTTGTTCAGGGTTCCATTTCGG; antisense; sugars from the 5' end m7 d11 m7, 5' {5'-OMe-dT}, 3' {3'-3'N}, backbone and T or U not given here; 2'-OMe blocks are phosphodiester, DNA gap is phosphorothioate) [compound 11]
mRNA knockout [6]: >90%

CCATAGTGAGGTTGCATCTGGTGCC (chimeric modifications, further chemistry not given here) [SEQ ID NO: 1, chimeric antisense oligonucleotide directed against AKT1]
reduction in endogenous AKT1 mRNA level (FIG. 3) ([1]; L1-transfected, versus control oligos and delivery by Effectene or peptoid (NaeNmpeNmpe)3): most pronounced reduction

CCCAGAGCCGATGGTCCGATCATGT (sugars from the 5' end m7 d11 m7, 5' {5'-OMe-dT}, 3' {3'-3'N}, backbone and T or U not given here; 2'-OMe blocks are phosphodiester, DNA gap is phosphorothioate) [SEQ ID NO: 3, chimeric antisense oligonucleotide directed against hCHK1]
degradation of endogenous mRNA ([2]; hCHK1 antisense, transfected cells): degradation of endogenous mRNA
chk1 function (G2 cell cycle checkpoint control) [7]: loss of chk1 function
chk1 kinase activity [8]: loss of chk1 kinase activity

Chol-Ahx-(NaeNmpeNmpe)3 [Cholesteroid 2]
proliferation and viability following oligonucleotide transfection (FIG. 5) [9]: significant increase in proliferation and viability
proliferation following oligonucleotide transfection (FIG. 7) [10]: also observed

Chol-β-ala-(NaeNiaNia)3 [Cholesteroid 3]
proliferation and viability following oligonucleotide transfection (FIG. 5) [9]: significant increase in proliferation and viability
proliferation following oligonucleotide transfection (FIG. 7) [10]: also observed

Chol-β-ala-(NaeNmpeNmpe)3 [Cholesteroid 1]
AKT1 mRNA knockout by carrier (FIG. 4) [11]: better AKT1 mRNA knockout than delivery by Lipitoid 1 or Lipitoid 2

DMPE(NaeNmpeNmpe)3 [Lipitoid 1]
delivery effectiveness by charge ratio ([12]; 1:4 charge ratio of oligo to lipitoid versus 1:3): more effective than the 1:3 ratio
nuclear delivery of the oligonucleotide [12, 13]: higher degree of nuclear delivery
transfection efficiency of FITC-labeled oligonucleotide [12, 13]: significantly higher transfection efficiency
